Like-named read-outs stand apart in the source and are kept apart here. Positions of bridges follow the written chain, without caps; N, C: chain ends. No end group written: not given here.
Key:
rASIC1a = biological target: T1, rASIC1a (Rattus norvegicus, UniProt P55926); test: TEVC in Xenopus laevis oocytes expressing rASIC1a; assay type: cell-based; conditions: for inhibition of currents at 300 nM: 300 nM peptide; for increase in IC50 (loss of potency) relative to wild-type Ma-3: peptides applied at pH 7.45, stimulated at pH 6
T1 construct: expressed in transfected cells; host or cells: Xenopus laevis oocytes (cRNA injection)
T1 sequence (P55926 1-526): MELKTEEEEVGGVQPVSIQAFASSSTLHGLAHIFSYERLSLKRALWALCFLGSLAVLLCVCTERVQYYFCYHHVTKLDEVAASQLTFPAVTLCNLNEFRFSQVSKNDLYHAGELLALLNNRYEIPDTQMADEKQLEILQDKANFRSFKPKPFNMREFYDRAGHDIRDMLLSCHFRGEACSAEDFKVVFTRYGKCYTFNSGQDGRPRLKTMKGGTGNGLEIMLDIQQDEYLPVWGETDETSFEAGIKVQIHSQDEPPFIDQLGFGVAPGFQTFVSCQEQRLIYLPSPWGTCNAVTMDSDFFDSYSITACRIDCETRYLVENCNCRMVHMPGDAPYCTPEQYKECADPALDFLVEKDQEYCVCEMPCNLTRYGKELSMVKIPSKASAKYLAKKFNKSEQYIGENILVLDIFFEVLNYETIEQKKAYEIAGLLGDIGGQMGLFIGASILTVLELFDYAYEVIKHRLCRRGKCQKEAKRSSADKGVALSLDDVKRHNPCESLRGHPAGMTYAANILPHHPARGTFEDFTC
Procedure: (§1) Two-electrode voltage-clamp (TEVC) experiments using Xenopus laevis oocytes were conducted as previously described. Briefly, oocytes were surgically removed from anaesthetised female frogs, then treated with collagenase (~ 1 mg/ml, Sigma type I) for 2 h under agitation at room temperature. cRNAs were synthesised using a mMessage mMachine T7 or SP6 transcription kit (Thermo Fisher Scientific Australia Pty Ltd, Scoresby, VIC, Australia) and injected into healthy stage V–VI oocytes at 0.2–20 ng per cell. Different amounts of RNA were used for different wild-type and mutant constructs, as well as to titrate expression levels to record over multiple days and maintaining consistent expression levels. Injected oocytes were incubated at 17 °C for 1–7 days in 50% Leibovitz’s L-15 medium (Gibco, Thermo Fisher Scientific Australia Pty Ltd, Scoresby, VIC, Australia), supplemented with 25 µg/mL gentamicin, 25 µg/mL streptomycin, and 2.5% fetal horse serum. Membrane currents were recorded 2–7 days after cRNA-injection under voltage-clamp at -60 mV (Axon Axoclamp 900 A, Molecular Devices, CA, USA) using two standard glass microelectrodes of 0.5–1 MΩ resistance when filled with 3 M KCl solution. Data were sampled at 2 kHz and filtered at 0.1 kHz using Clampex 10 software (Molecular Devices, CA, USA). A microperfusion system was used to allow fast extracellular solution exchange (bath volume = ~ 30 µL). All experiments were performed at room temperature (18–23 °C) in ND96 (96 mM NaCl, 2 mM KCl, 1.8 mM CaCl2, 2 mM MgCl2, 5 mM HEPES, pH 7.45). In solutions below pH 6.8, HEPES was replaced by MES. All solutions containing peptides contained 0.05% fatty acid free bovine serum albumin to decrease adsorptive losses of peptide to plasticware. For all channels tested, control current magnitudes between 500 and 9000 nA when tested using a conditioning pH of 7.45 and stimulating pH of 6 (except for the chimeras that were stimulated with pH 5) were used for data collection. Before recording any experiments, oocytes were stimulated multiple times with low pH to minimise and stabilise tachyphylaxis/desensitisation, which were then accounted for during analysis. Complete recovery of currents from Ma-3 induced modulation within 3 min of washout at all channels tested allowed for correction for tachyphylaxis/desensitisation during analyses.
(§2) Specific to this work, the standard protocol was for oocytes to be conditioned at pH 7.45 and channels stimulated every 60 s using a 5 s pH 5 or 6 application, unless stated otherwise. For all concentration-response data, peptides were applied for ~ 50 s between each low pH stimulus application. Activation curves were determined by conditioning oocytes at pH 8 (Fig. 2e − g; and Fig. 5a and b) or 7.45 (Fig. 6; and Supplementary Fig. 2d and c) for 55 s and applying low pH stimuli from 7.25 to 5.0 for 5 s. Steady-state desensitisation (SSD) was determined by applying conditioning solutions of pH values from 8 to 6 for 115 s prior to stimulation by a pH drop to 5 for 5 s. Ma-3 was only applied in the conditioning solution for activation and steady-state desensitisation curves in the presence of peptide. Control pH-dependence curves were determined in the absence of any Ma-3. When assessing the effect of Ma-3 on the rASIC1a: ASIC1b chimeras (C92 and C166; and for the comparative wild-type data), the conditioning pH was 7.45 and stimulating pH 5 (Fig. 3b). Specific details of the conditioning and stimulating pH are noted in each figure legend.
(§3) Data were analysed using pCLAMP-Clampfit software (Version 11, Molecular Devices, CA, USA) and GraphPad Prism 9.5 and 10.2.2 (GraphPad Software, San Diego, CA, USA). To obtain the Hill coefficient (nH) and half-maximal response (EC50, IC50, or pH50) the Hill equation was fitted to normalised concentration-response curves by using a non-linear fit to the data of a four-parameter logistic equation (“sigmoidal dose-response” in GraphPad Prism 9.5). […]

hASIC1b = biological target: T2, hASIC1b (Homo sapiens, UniProt P78348); test: TEVC in Xenopus laevis oocytes expressing hASIC1b; assay type: cell-based; conditions: for remaining activity at 1 µM: 1 µM peptide, conditioning pH 7.45, mean, n ≥ 5, read-out: I/Icontrol
T2 construct: expressed in transfected cells; host or cells: Xenopus laevis oocytes (cRNA injection)
T2 sequence (P78348 1-562 isoform P78348-3): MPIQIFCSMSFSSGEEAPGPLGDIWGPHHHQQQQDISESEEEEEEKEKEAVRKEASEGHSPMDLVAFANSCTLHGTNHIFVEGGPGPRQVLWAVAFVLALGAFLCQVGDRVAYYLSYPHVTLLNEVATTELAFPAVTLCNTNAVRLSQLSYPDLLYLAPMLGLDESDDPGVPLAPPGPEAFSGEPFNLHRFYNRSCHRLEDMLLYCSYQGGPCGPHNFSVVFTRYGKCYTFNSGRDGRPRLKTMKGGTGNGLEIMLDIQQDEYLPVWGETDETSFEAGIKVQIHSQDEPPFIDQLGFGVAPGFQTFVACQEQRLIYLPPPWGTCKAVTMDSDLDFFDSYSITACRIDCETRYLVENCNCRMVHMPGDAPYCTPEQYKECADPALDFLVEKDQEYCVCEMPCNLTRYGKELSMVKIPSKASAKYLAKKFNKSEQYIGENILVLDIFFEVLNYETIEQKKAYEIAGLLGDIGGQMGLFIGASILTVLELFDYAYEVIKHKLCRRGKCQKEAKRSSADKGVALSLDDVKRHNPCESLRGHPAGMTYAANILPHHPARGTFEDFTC
Procedure: as §1, §2, §3

[1] = conditioning pH 7.45, stimulating pH 6

Substance | inhibition of currents at 300 nM (rASIC1a; [1]) | increase in IC50 (loss of potency) relative to wild-type Ma-3 (rASIC1a) | remaining activity at 1 µM (hASIC1b; pH 5 evoked currents) [%] | remaining activity at 1 µM (hASIC1b; pH 6 evoked currents) [%] | t1/2 of onset of inhibition (rASIC1a; 30 nM Ma-3 (~ 10 times the IC50) applied at pH 7.45 for different durations, single exponential fit, n = 6) [s] | time of Ma-3 application to maximal inhibition (rASIC1a; 30 nM Ma-3 at pH 7.45) [s] | shift of the activation curve towards more acidic values (rASIC1a; 100 nM Ma-3, conditioning pH 8) [pH units] | slope of activation curve in presence of Ma-3 (rASIC1a; 100 nM Ma-3, conditioning pH 8, mean ± SEM) | alkaline shift in the SSD curve (rASIC1a; 100 nM Ma-3, stimulating pH 5) [pH units] | slope of SSD curve in presence of Ma-3 (rASIC1a; 100 nM Ma-3, stimulating pH 5, mean ± SEM) | pH50 of activation in presence of Ma-3 (rASIC1a; 100 nM Ma-3 in conditioning solution, conditioning pH 8, Hill fit, mean ± SEM, n = 5–8) | pH50 of steady-state desensitisation (SSD) in presence of Ma-3 (rASIC1a; 100 nM Ma-3 in conditioning solution, stimulating pH 5, Hill fit, mean ± SEM, n = 5–8) | pH50 of activation in presence of Ma-3 (rASIC1a; 100 nM Ma-3 in the pH 8 conditioning solution, Hill fit (Supplementary Table 7), n = 5–6) | fold more potent inhibition of rASIC1a than rASIC1b (rASIC1a; IC50 ratio, conditioning pH 7.45, stimulating pH 6) | t1/2 of recovery of currents from inhibition (washout) (rASIC1a; after 30 nM Ma-3, pH 7.45 conditioning, single exponential fit, n = 6) [s] | inhibition at saturating Ma-3 concentrations (rASIC1a; [1]) | pH50 of activation in presence of Ma-3 (hASIC1b; 300 nM Ma-3, conditioning pH 7.45, Hill fit, n = 5–6) | difference in potency between pH 5 and pH 6 stimulus conditions (hASIC1b; potentiation at pH 6 vs inhibition at pH 5, conditioning pH 7.45)
H-SLKCYQHGKVVTCHRDAKFCYHNIGMPFRNLKLILQGCSSSCSETENNKCCSTDRCNK (disulfide 4-20, 13-38, 42-50, 51-56 (inferred)) [M16A] | strongly inhibit | no change | 80 | 188 |  |  |  |  |  |  |  |  |  |  |  |  |  | 
H-SLKCYQHGAVVTCHRDMKFCYHNIGMPFRNLKLILQGCSSSCSETENNKCCSTDRCNK (disulfide 4-20, 13-38, 42-50, 51-56 (inferred)) [K8A] | strongly inhibit | ~ 4 fold | 75 | 165 |  |  |  |  |  |  |  |  |  |  |  |  |  | 
H-SLKCYQHGKVVTCHRDMKFCYHNIGMPFRNLKLILQGCSSSCSETENNKCCSTDRCNK (disulfide 4-20, 13-38, 42-50, 51-56 (inferred)) [Ma-3, mambalgin-3] | strongly inhibit |  | 69 | 161 | 6.5 | ≤ 45 | 0.48 | 1.29 ± 0.67 | 0.08 | 7.09 ± 1.34 | 5.72 ± 0.23 | 7.42 ± 0.04 | 5.60 | ~ 10 fold | 21.6 | completely inhibited | 6.20 | ~ 10 fold
